Earlier results in patent US11230553B2, “Nannocystin process and products” (THE RESEARCH FOUNDATION FOR THE STATE UNIVERSITY OF NEW YORK, priority 2016, dated 2022).

Key:
[1] = tested on: 472 cancer cell lines
[2] = tested on: HCT116; conditions: HCT116 cancer cell line; read-out: IC50 against HCT116
[3] = tested on: HL60; conditions: HL60 cancer cell line; read-out: IC50 against HL60
[4] = tested on: PC3; conditions: PC3 cancer cell line; read-out: IC50 against PC3

**Q.** Which results are given for `CC[C@H](C)[C@H]1C(=O)N[C@H](Cc2cc(Cl)c(O)c(Cl)c2)C(=O)N[C@@H](C(C)(C)O)C(=O)O[C@H](c2ccccc2)[C@H](C)/C=C/C=C(\C)[C@H](OC)C[C@@H]2O[C@@]2(C)C(=O)N1C` [nannocystin A, (1), (1R,4S,7R,10S,13S,14R,15E,17E,19R,21S)-4-((S)-sec-butyl)-7-(3,5-dichloro-4-hydroxybenzyl)-10-(2-hydroxypropan-2-yl)-19-methoxy-1,3,14,18-tetramethyl-13-phenyl-12,22-dioxa-3,6,9-triazabicyclo[19.1.0]docosa-15,17-diene-2,5,8,11-tetraone]?
**A.** anti-proliferative properties against 472 cancer cell lines [1]: nanomolar concentration range; IC50 [2]: 1.2 nM; IC50 [3]: 12 nM; IC50 [4]: 1 nM
